Columns and labels:
Test in all cases: KINOMEscan competition binding
Details in all cases: compound 1.0 µM
[1] = target: CHEK2 (human) (UniProt O96017)
[2] = tested on: PIK3CA (human), P42336 [H1047L]
[3] = target: TLK2 (human) (UniProt Q86UE8)
[4] = target: MARK2 (human) (UniProt Q7KZI7)
[5] = target: CDK5 (human) (UniProt Q00535)
[6] = tested on: EGFR (human), P00533 [T790M/L858R]
[7] = target: EPHB3 (human) (UniProt P54753)
[8] = target: CDK8 (human) (UniProt P49336)
[9] = target: CSNK1G2 (human) (UniProt P78368)
[10] = target: PRKD2 (human) (UniProt Q9BZL6)
[11] = target: CSNK1G3 (human) (UniProt Q9Y6M4)
[12] = target: KIT (human) (UniProt P10721)
[13] = target: SBK1 (human) (UniProt Q52WX2)
[14] = target: PRKD1 (human) (UniProt Q15139)
[15] = target: STK17A (human) (UniProt Q9UEE5)
[16] = target: NEK9 (human) (UniProt Q8TD19)
[17] = target: PAK1 (human) (UniProt Q13153)
[18] = target: ACVR2B (human) (UniProt Q13705)
[19] = tested on: PIK3CA (human), P42336 [E542K]
[20] = tested on: EGFR (human), P00533 [L861Q]
[21] = target: PRKACA (human) (UniProt P17612)
[22] = target: EPHB1 (human) (UniProt P54762)
[23] = target: DCLK1 (human) (UniProt O15075)
[24] = target: BMP2K (human) (UniProt Q9NSY1)
[25] = target: RIOK3 (human) (UniProt O14730)
[26] = target: MAP3K12 (human) (UniProt Q12852)
[27] = target: BMPR1B (human) (UniProt O00238)
[28] = target: MAPK10 (human) (UniProt P53779)
[29] = target: CDK17 (human) (UniProt Q00537)
[30] = target: NEK1 (human) (UniProt Q96PY6)
[31] = target: FGFR4 (human) (UniProt P22455)
[32] = target: LTK (human) (UniProt P29376)
[33] = tested on: KIT (human), P10721 [L576P]
[34] = target: MELK (human) (UniProt Q14680)
[35] = target: HIPK2 (human) (UniProt Q9H2X6)
[36] = target: RPS6KA2 KD2 (human) (UniProt Q15349)
[37] = target: STK3 (human) (UniProt Q13188)
[38] = target: PRKCH (human) (UniProt P24723)
[39] = target: PIM1 (human) (UniProt P11309)
[40] = target: LATS1 (human) (UniProt O95835)
[41] = target: STK17B (human) (UniProt O94768)
[42] = target: TNIK (human) (UniProt Q9UKE5)

Sequence of NEK1 (human) (Q96PY6 whole entry, looked up): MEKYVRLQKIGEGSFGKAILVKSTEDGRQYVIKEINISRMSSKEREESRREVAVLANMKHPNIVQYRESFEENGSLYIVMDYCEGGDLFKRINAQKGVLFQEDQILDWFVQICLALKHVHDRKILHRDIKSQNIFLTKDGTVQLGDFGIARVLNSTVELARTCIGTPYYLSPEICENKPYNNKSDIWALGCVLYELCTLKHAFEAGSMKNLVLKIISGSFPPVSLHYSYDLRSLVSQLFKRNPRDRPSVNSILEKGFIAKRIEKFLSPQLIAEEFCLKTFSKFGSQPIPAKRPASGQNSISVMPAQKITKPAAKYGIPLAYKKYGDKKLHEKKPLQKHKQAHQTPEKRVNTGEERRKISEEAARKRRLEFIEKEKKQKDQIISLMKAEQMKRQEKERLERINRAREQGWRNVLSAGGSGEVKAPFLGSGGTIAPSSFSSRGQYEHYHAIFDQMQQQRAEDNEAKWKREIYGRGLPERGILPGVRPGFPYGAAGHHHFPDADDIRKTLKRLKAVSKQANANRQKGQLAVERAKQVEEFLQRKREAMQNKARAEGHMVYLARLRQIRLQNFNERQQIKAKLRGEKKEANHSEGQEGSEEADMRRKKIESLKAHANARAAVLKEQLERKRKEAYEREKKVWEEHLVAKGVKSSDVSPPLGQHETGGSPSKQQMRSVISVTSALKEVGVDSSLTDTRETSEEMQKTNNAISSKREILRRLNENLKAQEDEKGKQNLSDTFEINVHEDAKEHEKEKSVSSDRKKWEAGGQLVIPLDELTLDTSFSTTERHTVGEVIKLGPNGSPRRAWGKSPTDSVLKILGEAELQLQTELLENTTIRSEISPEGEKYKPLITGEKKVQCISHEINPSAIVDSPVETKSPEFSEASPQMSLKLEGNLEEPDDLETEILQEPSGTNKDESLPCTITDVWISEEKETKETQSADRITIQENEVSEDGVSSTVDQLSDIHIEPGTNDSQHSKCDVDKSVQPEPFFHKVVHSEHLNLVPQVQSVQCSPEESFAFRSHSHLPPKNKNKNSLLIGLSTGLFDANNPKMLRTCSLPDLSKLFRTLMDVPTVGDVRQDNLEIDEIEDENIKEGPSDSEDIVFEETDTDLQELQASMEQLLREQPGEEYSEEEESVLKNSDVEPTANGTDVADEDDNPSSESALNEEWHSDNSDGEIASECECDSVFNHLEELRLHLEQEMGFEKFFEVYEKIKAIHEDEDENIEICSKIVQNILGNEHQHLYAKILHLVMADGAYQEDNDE
Sequence of EPHB3 (human) (P54753 whole entry, looked up): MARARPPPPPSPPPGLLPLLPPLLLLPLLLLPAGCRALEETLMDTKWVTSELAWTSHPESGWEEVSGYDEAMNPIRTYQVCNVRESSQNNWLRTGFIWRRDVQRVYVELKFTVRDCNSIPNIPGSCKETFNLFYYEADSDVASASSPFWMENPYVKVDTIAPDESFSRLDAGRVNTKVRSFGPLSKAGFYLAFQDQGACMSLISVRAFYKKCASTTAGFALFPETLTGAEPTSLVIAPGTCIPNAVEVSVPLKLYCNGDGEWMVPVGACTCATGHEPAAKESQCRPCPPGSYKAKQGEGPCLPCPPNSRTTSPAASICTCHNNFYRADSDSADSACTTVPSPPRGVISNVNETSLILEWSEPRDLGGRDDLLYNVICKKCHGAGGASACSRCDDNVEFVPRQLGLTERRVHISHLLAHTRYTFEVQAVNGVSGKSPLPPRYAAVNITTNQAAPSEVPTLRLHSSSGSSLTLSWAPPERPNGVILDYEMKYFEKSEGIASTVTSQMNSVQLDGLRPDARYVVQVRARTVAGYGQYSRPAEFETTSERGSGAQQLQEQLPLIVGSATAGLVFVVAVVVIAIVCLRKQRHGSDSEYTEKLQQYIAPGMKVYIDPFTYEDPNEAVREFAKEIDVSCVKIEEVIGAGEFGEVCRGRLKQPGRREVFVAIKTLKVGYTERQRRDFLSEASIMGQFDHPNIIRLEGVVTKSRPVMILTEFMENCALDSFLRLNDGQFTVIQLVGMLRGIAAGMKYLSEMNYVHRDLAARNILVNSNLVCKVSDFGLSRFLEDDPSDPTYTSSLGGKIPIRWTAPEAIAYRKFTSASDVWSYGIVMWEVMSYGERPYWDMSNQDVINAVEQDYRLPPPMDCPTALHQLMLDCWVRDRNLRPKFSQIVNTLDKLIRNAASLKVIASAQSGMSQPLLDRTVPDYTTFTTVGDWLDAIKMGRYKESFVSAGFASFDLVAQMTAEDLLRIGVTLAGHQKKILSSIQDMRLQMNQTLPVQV
Sequence of CDK8 (human) (P49336 whole entry, looked up): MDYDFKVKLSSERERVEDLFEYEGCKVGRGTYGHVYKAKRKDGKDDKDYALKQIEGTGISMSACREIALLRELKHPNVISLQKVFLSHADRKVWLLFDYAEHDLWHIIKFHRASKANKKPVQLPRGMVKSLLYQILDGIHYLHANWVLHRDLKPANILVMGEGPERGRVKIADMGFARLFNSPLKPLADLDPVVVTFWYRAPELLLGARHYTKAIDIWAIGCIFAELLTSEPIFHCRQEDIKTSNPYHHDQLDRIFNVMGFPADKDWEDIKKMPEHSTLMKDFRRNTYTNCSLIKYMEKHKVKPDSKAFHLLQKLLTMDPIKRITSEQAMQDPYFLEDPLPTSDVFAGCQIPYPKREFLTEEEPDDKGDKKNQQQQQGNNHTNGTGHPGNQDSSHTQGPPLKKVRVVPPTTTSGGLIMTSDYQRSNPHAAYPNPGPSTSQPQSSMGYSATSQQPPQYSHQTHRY
Sequence of MARK2 (human) (Q7KZI7 whole entry, looked up): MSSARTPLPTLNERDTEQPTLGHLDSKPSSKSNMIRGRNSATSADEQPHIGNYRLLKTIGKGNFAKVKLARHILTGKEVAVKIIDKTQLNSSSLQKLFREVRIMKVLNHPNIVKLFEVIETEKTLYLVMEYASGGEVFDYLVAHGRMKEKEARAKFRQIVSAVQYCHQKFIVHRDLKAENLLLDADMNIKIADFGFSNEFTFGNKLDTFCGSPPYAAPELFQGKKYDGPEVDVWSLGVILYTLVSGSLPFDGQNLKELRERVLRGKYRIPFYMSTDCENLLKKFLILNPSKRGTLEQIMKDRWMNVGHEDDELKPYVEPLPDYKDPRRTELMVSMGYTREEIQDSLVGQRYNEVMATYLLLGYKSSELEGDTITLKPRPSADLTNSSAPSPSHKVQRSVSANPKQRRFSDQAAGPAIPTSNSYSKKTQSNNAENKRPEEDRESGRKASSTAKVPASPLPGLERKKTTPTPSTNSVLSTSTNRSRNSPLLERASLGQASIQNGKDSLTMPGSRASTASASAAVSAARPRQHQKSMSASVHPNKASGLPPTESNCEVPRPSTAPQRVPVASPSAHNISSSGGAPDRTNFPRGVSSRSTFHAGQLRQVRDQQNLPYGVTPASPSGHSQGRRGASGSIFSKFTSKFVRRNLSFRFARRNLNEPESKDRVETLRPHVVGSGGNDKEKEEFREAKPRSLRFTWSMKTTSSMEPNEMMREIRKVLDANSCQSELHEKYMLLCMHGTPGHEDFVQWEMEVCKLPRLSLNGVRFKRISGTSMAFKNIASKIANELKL
Sequence of MAPK10 (human) (P53779 whole entry, looked up): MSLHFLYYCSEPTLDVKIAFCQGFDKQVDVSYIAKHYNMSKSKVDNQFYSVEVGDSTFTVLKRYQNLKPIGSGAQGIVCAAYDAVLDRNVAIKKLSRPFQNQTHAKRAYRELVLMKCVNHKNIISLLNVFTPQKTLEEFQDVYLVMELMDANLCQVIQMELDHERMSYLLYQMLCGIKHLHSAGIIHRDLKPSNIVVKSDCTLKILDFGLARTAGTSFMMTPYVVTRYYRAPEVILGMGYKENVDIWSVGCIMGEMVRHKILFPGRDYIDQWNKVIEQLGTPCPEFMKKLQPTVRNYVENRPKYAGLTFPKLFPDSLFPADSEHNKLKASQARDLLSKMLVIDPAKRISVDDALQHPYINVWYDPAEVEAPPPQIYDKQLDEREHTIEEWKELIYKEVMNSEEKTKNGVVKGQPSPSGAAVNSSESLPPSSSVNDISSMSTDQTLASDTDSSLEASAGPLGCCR
Sequence of PRKD1 (human) (Q15139 whole entry, looked up): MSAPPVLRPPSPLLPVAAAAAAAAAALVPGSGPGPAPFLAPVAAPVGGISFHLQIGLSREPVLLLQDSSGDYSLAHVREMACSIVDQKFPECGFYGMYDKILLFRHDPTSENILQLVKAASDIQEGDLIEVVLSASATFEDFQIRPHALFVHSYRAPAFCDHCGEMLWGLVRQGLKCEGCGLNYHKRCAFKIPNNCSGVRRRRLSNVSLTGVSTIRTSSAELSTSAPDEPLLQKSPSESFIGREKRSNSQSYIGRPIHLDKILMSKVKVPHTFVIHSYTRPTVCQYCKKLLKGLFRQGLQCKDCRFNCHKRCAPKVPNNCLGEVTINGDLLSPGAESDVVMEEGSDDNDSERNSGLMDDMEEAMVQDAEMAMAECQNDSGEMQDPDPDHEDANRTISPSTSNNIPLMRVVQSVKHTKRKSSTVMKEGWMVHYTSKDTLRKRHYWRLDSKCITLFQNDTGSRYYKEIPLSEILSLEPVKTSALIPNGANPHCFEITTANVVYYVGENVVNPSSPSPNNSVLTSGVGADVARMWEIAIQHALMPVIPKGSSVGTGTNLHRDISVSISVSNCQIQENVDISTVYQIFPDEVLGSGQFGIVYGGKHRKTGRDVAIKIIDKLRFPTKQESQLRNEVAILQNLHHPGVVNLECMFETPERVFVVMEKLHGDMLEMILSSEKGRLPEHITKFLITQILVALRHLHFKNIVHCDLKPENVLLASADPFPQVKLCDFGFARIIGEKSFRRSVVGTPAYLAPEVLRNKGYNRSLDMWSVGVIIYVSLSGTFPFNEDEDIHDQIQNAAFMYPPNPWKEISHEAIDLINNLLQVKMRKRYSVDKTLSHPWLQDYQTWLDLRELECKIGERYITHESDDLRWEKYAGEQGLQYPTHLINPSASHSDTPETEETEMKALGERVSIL

## CN(C)C/C=C/C(=O)Nc1cccc(C(=O)Nc2ccc(Nc3nccc(/C(C#N)=C4\Nc5ccccc5S4)n3)cc2)c1
[1]
  kinase still bound, per cent of control: 100%
[2]
  kinase still bound, per cent of control: 100%
[3]
  kinase still bound, per cent of control: 100%
[4]
  kinase still bound, per cent of control: 100%
[5]
  kinase still bound, per cent of control: 100%
[6]
  kinase still bound, per cent of control: 100%
[7]
  kinase still bound, per cent of control: 95%
[8]
  kinase still bound, per cent of control: 100%
[9]
  kinase still bound, per cent of control: 22%
[10]
  kinase still bound, per cent of control: 100%
[11]
  kinase still bound, per cent of control: 37%
[12]
  kinase still bound, per cent of control: 12%
[13]
  kinase still bound, per cent of control: 100%
[14]
  kinase still bound, per cent of control: 100%
[15]
  kinase still bound, per cent of control: 100%
[16]
  kinase still bound, per cent of control: 100%
[17]
  kinase still bound, per cent of control: 100%
[18]
  kinase still bound, per cent of control: 100%
[19]
  kinase still bound, per cent of control: 100%
[20]
  kinase still bound, per cent of control: 81%
[21]
  kinase still bound, per cent of control: 88%
[22]
  kinase still bound, per cent of control: 100%
[23]
  kinase still bound, per cent of control: 100%
[24]
  kinase still bound, per cent of control: 51%
[25]
  kinase still bound, per cent of control: 100%
[26]
  kinase still bound, per cent of control: 100%
[27]
  kinase still bound, per cent of control: 100%
[28]
  kinase still bound, per cent of control: 0.05%
[29]
  kinase still bound, per cent of control: 100%
[30]
  kinase still bound, per cent of control: 100%
[31]
  kinase still bound, per cent of control: 100%
[32]
  kinase still bound, per cent of control: 100%
[33]
  kinase still bound, per cent of control: 100%
[34]
  kinase still bound, per cent of control: 100%
[35]
  kinase still bound, per cent of control: 60%
[36]
  kinase still bound, per cent of control: 100%
[37]
  kinase still bound, per cent of control: 91%
[38]
  kinase still bound, per cent of control: 100%
[39]
  kinase still bound, per cent of control: 100%
[40]
  kinase still bound, per cent of control: 89%
[41]
  kinase still bound, per cent of control: 100%
[42]
  kinase still bound, per cent of control: 100%
